Measured values as given in patent US9820487B2, “Abscinazole” (NATIONAL UNIVERSITY CORPORATION SHIZUOKA UNIVERSITY, priority 2014, dated 2017).

Columns and labels:
[1] = tested on: seeds of thale cress (Arabidopsis thaliana, Col-0); experiment: Thale cress seed germination inhibition test (2); assay type: in vivo; conditions: 120 hours after seed plantation (FIG. 3)
Protocol: Seeds of thale cress (Arabidopsis thaliana, Col-0) were immersed in […] an aqueous solution of 70% ethanol for 30 minutes, subsequently in 500 μL of 100% ethanol for 1 minute, washed three times in 1 mL of distilled water, then immersed in distilled water and, in a dark place, verbalized at 4° C. for 3 days. A solution of the sample in methanol and a solution of ABA in methanol were put in a 1.5 mL microtube, and methanol was removed therefrom under reduced pressure. An aqueous solution of 0.5% agar (containing 1/2 MS medium inorganic salts) at 70° C. was added thereto, followed by stirring the resultant. The obtained solution was placed in a 96-well plate to provide the medium containing the sample. 20 to 30 vernalized seeds of thale cress were planted in each well and cultured at 22° C. under continuous light to monitor the number of seeds germinated over time. The germination rate was calculated in accordance with the following formula (1). Note that the medium prepared using methanol in the same manner as above was used as an untreated control and a germination rate of 100% was achieved 72 hours later from the seed plantation. Germination rates 72 hours later from the seed plantation are shown in FIG. 1 and initial growth conditions of thale cress 120 hours later are shown in FIG. 2.
Germination rate (%)=Number of seeds germinated/Number of seeds planted×100 . . . (1) […]

[2] = biological target: T1, abscisic acid 8′-hydroxylase CYP707A3 (Arabidopsis thaliana, UniProt Q9FH76); experiment: Abscisic acid 8′-hydroxylase CYP707A3 inhibition test; assay type: biochemical; conditions: CYP707A3 + NADPH-P450 reductase ATR1, substrate ABA, 30° C. 10 minutes; IC50 calculated from two concentrations
T1 sequence (Q9FH76 1-463): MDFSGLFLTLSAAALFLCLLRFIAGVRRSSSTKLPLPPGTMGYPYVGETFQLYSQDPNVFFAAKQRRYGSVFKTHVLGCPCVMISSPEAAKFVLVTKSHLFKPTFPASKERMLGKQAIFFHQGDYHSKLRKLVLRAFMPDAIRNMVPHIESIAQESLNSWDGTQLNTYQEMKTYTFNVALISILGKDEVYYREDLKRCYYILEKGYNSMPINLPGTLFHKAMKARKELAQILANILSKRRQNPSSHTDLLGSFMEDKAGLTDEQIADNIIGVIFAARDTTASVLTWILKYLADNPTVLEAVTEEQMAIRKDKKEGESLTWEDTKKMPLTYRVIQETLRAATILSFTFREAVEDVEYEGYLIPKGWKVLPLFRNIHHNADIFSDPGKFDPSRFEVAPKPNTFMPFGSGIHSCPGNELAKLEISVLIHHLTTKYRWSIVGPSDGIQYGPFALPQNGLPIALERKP
Protocol: In a 1.5 mL microtube, 10 μL of a solution of substrate 250 μM ABA in potassium/phosphate buffer (KPB), 5 μL of a solution of the sample in dimethylformamide, 435 μL of KPB and 40 μL of abscisic acid 8′-hydroxylase CYP707A3+NADPH-P450 reductase ATR1 were put and heated at 30° C. for 10 minutes. 10 μL of a solution of 5 mg/mL NADPH in KPB was added thereto thereby starting the enzyme reaction. The reaction was carried out at 30° C. for 10 minutes at a rotation speed of 1000 rpm, and 25 μL of an aqueous solution of 1 M sodium hydroxide was added thereto thereby terminating the reaction. The reaction solution was allowed to stand at 4° C. for 30 minutes and subsequently 50 μL of 1 M hydrochloric acid was added thereto to convert the enzyme metabolite to phaseic acid (PA). The enzyme reaction solution was subjected to an OASIS HLB cartridge (1 cc, 30 mg; washed with 1 mL of methanol (1% acetic acid) and equilibrated with 1 mL of water (1% acetic acid)) and washed with 1 mL of 10% methanol/water (1% acetic acid) thereby eluting phaseic acid with 1 mL of methanol (1% acetic acid). The eluate was concentrated under reduced pressure (toluene was added to azeotrope acetic acid), the obtained substance was dissolved in 50 μL of methanol. 20 μL of the solution was subjected to HPLC (column, YMC-Pack Hydrosphere C18 (6 mm inner diameter×150 mm length); flow rate 1 mL/min; detection 254 nm) analysis. The CYP707A3 inhibition rate of the samples was calculated in accordance with the following formula (3). Note that dimethylformamide was used for the control in place of the sample solution. Each sample was tested with two different concentrations to calculate the 50% inhibition concentration (IC50) based on the enzyme inhibition rates thereof The results are shown in Table 1.
Enzyme inhibition rate (%)={1-(PA peak area of each sample/PA peak area of control)}×100 . . . (3)

COCCOCCOCCOCC#Cc1cccc(/C=C(\[C@@H](O)C(C)(C)C)n2cncn2)c1 [Example 1 (−) Form, (−)-(S)-(E)-1-(3-(2,5,8,11-tetraoxatetradec-13-yn-14-yl)phenyl)-4,4-dimethyl-2-(1H-1,2,4-triazol-1-yl)pent-1-en-3-ol]
seed germination inhibition compared with (−) form of Comparative Example 1 [1]: can inhibit the seed germination even in lower concentrations
potency estimated from few doses [2]: 64 nM
